Experimental findings from patent US20090047243A1, “COMBINATIONS FOR THE TREATMENT OF B-CELL PROLIFERATIVE DISORDERS” (priority 2007, published 2009) are described below.

One experiment relates to patient CLL cells. Put plainly: Apoptosis assay (Hoechst 33342, flow cytometry, 48 h). The experiment is classed as cell-based, human. The arrangement: unit not given here. From the text: Blood samples were obtained in heparinized tubes with IRB-approved consent from flow cytometry-confirmed B-CLL patients that were either untreated or for whom at least 1 month had elapsed since chemotherapy. Patients with active infections or other serious medical conditions were not included in this study. Patients with white blood cell counts of less than 15,000/μl by automated analysis were excluded from this study. Whole blood was layered on Ficoll-Hystopaque (Sigma), and peripheral blood mononuclear cells (PBMC) isolated after centrification. […] One million cells were stained with anti-CD5-PE and anti-CD19-PE-Cy5 (Becton Dickenson, Franklin Lakes N.J.). The percentage of B-CLL cells was defined as the percentage of cells doubly expressing CD5 and CDl9, as determined by flow cytometry. […] Compound master plates were diluted 1:50 into complete media to create working compound dilutions. Compound crosses were then created by diluting two working dilution plates 1:10 into each plate of cells. […] Hoechst 33342 (Molecular Probes, Eugene Oreg.) at a final concentration of 0.25 μg/1 mL was added to each well, and the cells incubated at 37° C. for an additional ten minutes before being placed on ice until analysis. Plates were then analyzed on a LSR-II flow cytometer (Becton Dickenson, Franklin Lakes, N.J.) equipped with the High Throughput Sampling (HTS) option in high throughput mode. […] The apoptotic fraction was calculated using FlowJo software (Tree Star Inc., Ashland, Oreg.) after excluding debris by a FSC/SSC gate and subsequently gating for cells that accumulate the Hoechst dye.

The test system of experiment [1] is RPMI-8226, H929, MM.1S and MM.1R MM cell lines. As to the kind of experiment: Anti-proliferation assay, statements across MM cell lines. The experiment is classed as cell-based, human. The following applies: RPMI-8226, H929, MM.1S and MM.1R MM cell lines. As for the experimental part: The MM.1S, MM.1R, H929, MOLP-8, EJM, INA-6, ANBL6, KSM-12-PE, OPM2, and RPMI-8226 multiple myeloma cell lines, as well as the Burkitt's lymphoma cell line GA-10 and the non-Hodgkin's lymphoma cell lines Farage, SU-DHL6, and Karpas 422 were cultured at 37° C. and 5% CO2 in RPMI-1640 media supplemented with 10% FBS. ANBL6 and INA-6 culture media was also supplemented with 10 ng/ml IL-6. The OCI-ly10 cell line was cultured using RPMI-1640 media supplemented with 20% human serum. MM.1S, MM.1R, OCI-ly10, Karpas 422, and SU-DHL6 cells were provided by the Dana Farber Cancer Institute. H929, RPMI-8226, GA-10, and Farage cells were from ATCC (Cat #'s CCL-155, CRL-9068, CRL-2392 and CRL-2630 respectively). MOLP-8, EJM, KSM-12-PE, and OPM2 were from DSMZ. The ANBL6 and INA-6 cell lines were provided by the M. D. Anderson Cancer Research Center.
Compounds were prepared in DMSO at 1000× the highest desired concentration. Master plates were generated consisting of serially diluted compounds in 2- or 3-fold dilutions in 384-well format. For single agent dose response curves, the master plates consisted of 9 individual compounds at 12 concentrations in 2- or 3-fold dilutions. For combination matrices, master plates consisted of individual compounds at 6 or 9 concentrations at 2- or 3-fold dilutions.
Cells were added to 384-well plates 24 hours prior to compound addition such that each well contained 2000 cells in 35 μL of media. Master plates were diluted 100× (1 μL into 100 μL) into 384-well dilution plates containing only cell culture media. 4.5 μL from each dilution plate was added to each assay plate for a final dilution of 1000×. To obtain combination data, two master plates were diluted into the assay plates. Following compound addition, assay plates were kept at 37° C. and 5% CO2 for 72 hours. Thirty microliters of ATPLite (Perkin Elmer) at room temperature was then added to each well. Final amount of ATP was quantified within 30 minutes using ATPLite luminescent read-out on an Envision 2103 Multilabel Reader (Perkin Elmer). Measurements were taken at the top of the well using a luminescence aperture and a read time of 0.1 seconds per well.
The Loewe additivity model was used to quantify combination effects. Combinations were ranked initially by Additivity Excess Volume, which is defined as ADD Volume=ΣCX, CY (Idata−ILoewe). where ILoewe(CX, CY) is the inhibition that satisfies (CX/ECX)+(CY/ECY)=1, and ECX,Y are the effective concentrations at ILoewe for the single agent curves. A “Synergy Score” was also used, where the Synergy Score S=log fX log fY ΣIdata(Idata−ILoewe), summed over all non-single-agent concentration pairs, and where log fX,Y is the natural logarithm of the dilution factors used for each single agent. This effectively calculates a volume between the measured and Loewe additive response surfaces, weighted towards high inhibition and corrected for varying dilution factors. An uncertainty σS was calculated for each synergy score, based on the measured errors for the Idata values and standard error propagation.

Consider `CCNC(=O)[C@H]1O[C@@H](n2cnc3c(N)nc(NCCc4ccc(CCC(=O)O)cc4)nc32)[C@H](O)[C@@H]1O` [CGS-21680, 2-(4-(2-carboxyethyl)phenethylamino)-5′-N-ethylcarboxamidoadenosine], for which the Induction of apoptosis is on record as 12 in the experiment on patient CLL cells (CGS-21680 0.05 μM, Roflumilast 0 μM (Table 50)); 16 in the experiment with patient CLL cells (CGS-21680 0.05 μM, Trequinsin 0 μM (Table 51)); 15 with patient CLL cells (CGS-21680 0.15 μM, Roflumilast 0 μM (Table 50)); 16 in the experiment on patient CLL cells (CGS-21680 0.15 μM, Trequinsin 0 μM (Table 51)); 25 in the experiment on patient CLL cells (CGS-21680 […], Roflumilast 0 μM (Table 50)); 27 in the experiment with patient CLL cells (CGS-21680 […], Trequinsin 0 μM (Table 51)).

Consider `OC[C@H]1O[C@H](n2cnc3c(NC4CC5CCC4C5)ncnc32)[C@H](O)[C@@H]1O` (stereo partly drawn) [(S)-ENBA, S-N^6-(2-endo-norbornyl)adenosine], for which the “activity and synergy of adenosine receptor agonists” value (“activity and synergy” for short) in experiment [1] was “active and synergistic”.

With `OC[C@H]1O[C@@H](n2cnc3c(NC4CCCC4)nc(Cl)nc32)[C@H](O)[C@@H]1O` [2-chloro-N-6-cyclopentyladenosine, 2-chloro-N^6-cyclopentyladenosine], the “activity and synergy” value in experiment [1] was “active and synergistic”.

In the case of `CNC(=O)[C@H]1O[C@@H](n2cnc3c(NCc4cccc(I)c4)nc(Cl)nc32)[C@H](O)[C@@H]1O` [chloro-IB-MECA, 2-chloro-N^6-(3-iodobenzyl)-5′-N-methylcarboxamidoadenosine], the “activity and synergy” value in experiment [1] is “active and synergistic”.

Take `CNC(=O)[C@H]1O[C@@H](n2cnc3c(NCc4cccc(I)c4)ncnc32)[C@H](O)[C@@H]1O` [IB-MECA, N^6-(3-iodobenzyl)-5′-N-methylcarboxamidoadenosine]: the “activity and synergy” value in experiment [1] is “active and synergistic”.
